Results from the supplement of paper PMC11061612.

Experiments:
Test in all cases: combination Emax (second highest fraction inhibited in the dose matrix, 72 h); higher = more inhibition; extreme values may be limits of the assay
[1] = system: NCI-H1092 (Small Cell Lung Carcinoma)
In short: (§1)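 After 24 hours at 37°C and 5% CO2 in 1536-well plates, cells in DMEM/F12 or RPMI plus 10% FBS received two-drug dose matrices for 72 hours. Viability came from CellTiter-Glo 2.0 luminescence and was scaled as inhibition, anchored at 0 by vehicle wells and at 1 by blank wells. Combination Emax is taken as the second-highest inhibition in the matrix, and Bliss excess as the observed combination effect less EA + EB − EA·EB, with EA and EB the single-agent effects.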

[2] = system: ML-2 (Acute Myeloid Leukemia)
In short: as §1

[3] = system: MOLT-4 (T-Lymphoblastic Leukemia)
In short: as §1

[4] = system: NCI-H1355 (Lung Adenocarcinoma)
In short: as §1

[5] = system: ALL-SIL (T-Lymphoblastic Leukemia)
In short: as §1

[6] = system: MDA-MB-453 (Breast Carcinoma)
In short: as §1

[7] = system: SKN (Other Solid Carcinomas)
In short: as §1

[8] = system: HCC2998 (Colorectal Carcinoma)
In short: as §1

SK-N-AS (Neuroblastoma) = system: SK-N-AS (Neuroblastoma)
In short: as §1

[9] = system: NCI-H1838 (Lung Adenocarcinoma)
In short: as §1

[10] = system: A4-Fuk (B-Lymphoblastic Leukemia)
In short: as §1

[11] = system: SW982 (Other Solid Carcinomas)
In short: as §1

COLO-679 (Melanoma) = system: COLO-679 (Melanoma)
In short: as §1

[12] = system: KMRC-1 (Kidney Carcinoma)
In short: as §1

[13] = system: KOPN-8 (B-Lymphoblastic Leukemia)
In short: as §1

[14] = system: LC-1-sq (Squamous Cell Lung Carcinoma)
In short: as §1

[15] = system: SW872 (Other Solid Carcinomas)
In short: as §1

[16] = system: EJM (Plasma Cell Myeloma)
In short: as §1

[17] = system: NCI-H1993 (Lung Adenocarcinoma)
In short: as §1

[18] = system: SNU-387 (Hepatocellular Carcinoma)
In short: as §1

| SMILES | combination Emax [1] | combination Emax [2] | combination Emax [3] | combination Emax [4] | combination Emax [5] | combination Emax [6] | combination Emax [7] | combination Emax [8] | combination Emax (SK-N-AS (Neuroblastoma)) | combination Emax [9] | combination Emax [10] | combination Emax [11] | combination Emax (COLO-679 (Melanoma)) | combination Emax [12] | combination Emax [13] | combination Emax [14] | combination Emax [15] | combination Emax [16] | combination Emax [17] | combination Emax [18] |
| --- | --- | --- | --- | --- | --- | --- | --- | --- | --- | --- | --- | --- | --- | --- | --- | --- | --- | --- | --- | --- |
| CC1(C)CCC(CN2CCN(c3ccc(C(=O)NS(=O)(=O)c4ccc(NCC5CCOCC5)c([N+](=O)[O-])c4)c(Oc4cnc5[nH]ccc5c4)c3)CC2)=C(c2ccc(Cl)cc2)C1 [Venetoclax] + Cc1cc2ncnn2cc1Nc1ncc2c(n1)n(C1CCOCC1)c(=O)n2C [AZD7648] (first compound max 1 µM, 7x7, partner max 10 µM) | 0.317 | 0.823 | 0.445 | 0.346 | 0.658 | 0.198 | 0.257 | 0.109 | 0.295 | 0.344 | 0.667 | 0.27 | 0.133 | 0.181 | 0.739 | 0.242 | 0.158 | 0.238 | 0.541 | 0.167 |
| CC1(C)CCC(CN2CCN(c3ccc(C(=O)NS(=O)(=O)c4ccc(NCC5CCOCC5)c([N+](=O)[O-])c4)c(Oc4cnc5[nH]ccc5c4)c3)CC2)=C(c2ccc(Cl)cc2)C1 [Venetoclax] + C[C@@H]1COCCN1C2=NC(=NC(=C2)C3(CC3)[S@](=N)(=O)C)C4=C5C=CNC5=NC=C4 [AZD6738] (first compound max 1 µM, 7x7, partner max 10 µM) | 0.458 | 1 | 1 | 0.696 | 1 | 0.761 | 0.491 | 0.779 | 0.896 | 0.6 | 0.775 | 0.676 | 0.639 | 0.486 | 1 | 0.672 | 0.459 | 0.869 | 0.582 | 0.588 |
| COc1cccc(OCCCN)c1-c1cc(Nc2cnc(C#N)cn2)n[nH]1 [Prexasertib] + CCc1c2c(nc3ccc(O)cc13)-c1cc3c(c(=O)n1C2)COC(=O)[C@]3(O)CC [SN-38] (first compound max 1 µM, 7x7, partner max 0.3 µM) | 0.899 | 1 | 1 | 0.756 | 1 | 0.929 | 0.803 | 1 | 0.997 | 0.946 | 0.972 | 0.796 | 0.826 | 0.455 | 1 | 0.889 | 1 | 0.952 | 0.938 | 0.795 |
